Experimental data: patent publication US11090304B2 (Amgen Inc., priority 2018, dated 2021)

Experiments:
[1] = molecular target: GDP-bound KRAS protein (aa 1-169), containing both G12C and C118A amino acid substitutions (Homo sapiens, UniProt P01116, C118A/G12C); experiment: Coupled nucleotide exchange assay (SOS-mediated, AlphaScreen); type: biochemical; settings: 5 min compound pre-incubation
[2] = tested on: Phosphorylation of ERK1/2 in MIA PaCa-2 cells; experiment: Phospho-ERK1/2 MSD assay in MIA PaCa-2 cells; type: cell-based; settings: Homo sapiens, MIA PaCa-2, 2 h, read-out: p-ERK IC50 (2 h; MIA PaCa-2), 2 h compound treatment
Outline: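 Following a 2 or 4 h incubation with titrated compound, cells receive a 10 min pulse of 10 ng/mL EGF. Phospho-ERK1/2 in RIPA lysates is then quantified by MSD immunoassay, and IC50 values come from a four-parameter logistic model.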

Chain of GDP-bound KRAS protein (aa 1-169), containing both G12C and C118A amino acid substitutions (P01116 1-169 isoform P01116-2 G12C/C118A): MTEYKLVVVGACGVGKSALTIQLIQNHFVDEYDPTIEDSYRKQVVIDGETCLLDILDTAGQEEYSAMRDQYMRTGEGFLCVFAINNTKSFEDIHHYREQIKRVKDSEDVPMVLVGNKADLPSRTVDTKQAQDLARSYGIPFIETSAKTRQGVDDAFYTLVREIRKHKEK

SMILES: C=CC(=O)N1CCN(c2nc(=O)n(-c3c(C)cccc3C(C)C)c3cc(-c4c(O)cccc4F)c(Cl)cc23)[C@@H](C)C1 [Example 106, 6-Chloro-7-(2-fluoro-6-hydroxyphenyl)-1-(2-methyl-6-(2-propanyl)phenyl)-4-((2S)-2-methyl-4-(2-propenoyl)-1-piperazinyl)-2(1H)-quinazolinone]
- Coupled exchange IC50 (5 min) [1]: 0.074 | nda μM
- IC50 [2]: 105 nM

SMILES: C=CC(=O)N1CCN(c2nc(=O)n(-c3ccccc3C(C)C)c3cc(-c4ccccc4F)c(Cl)nc23)[C@@H](C)C1 [Example 110, 6-Chloro-7-(2-fluorophenyl)-4-((2S)-2-methyl-4-(2-propenoyl)-1-piperazinyl)-1-(2-(2-propanyl)phenyl)pyrido[3,2-d]pyrimidin-2(1H)-one]
- Coupled exchange IC50 (5 min) [1]: 0.166 | nda μM
- IC50 [2]: 426 nM

SMILES: C=CC(=O)N1CCN(c2nc(=O)n(-c3c(C)ccnc3C(C)C)c3nc(-c4ccccc4F)c(Cl)nc23)[C@@H](C)C1 [Example 111, 6-Chloro-7-(2-fluorophenyl)-1-(4-methyl-2-(2-propanyl)-3-pyridinyl)-4-((2S)-2-methyl-4-(2-propenoyl)-1-piperazinyl)-2(1H)-pteridinone]
- Coupled exchange IC50 (5 min) [1]: 0.174 | nda μM
- IC50 [2]: 195 nM

SMILES: C=CC(=O)N1CCN(c2nc(=S)n(-c3c(CC)cccc3CC)c3cc(-c4ccccc4F)c(Cl)cc23)[C@@H](C)C1 [Example 116, 1-((3S)-4-(6-Chloro-1-(2,6-diethylphenyl)-7-(2-fluorophenyl)-2-sulfanylidene-1,2-dihydro-4-quinazolinyl)-3-methyl-1-piperazinyl)-2-propen-1-one]
- Coupled exchange IC50 (5 min) [1]: 0.232 | nda μM
- IC50 [2]: 543 nM

SMILES: C=CC(=O)N1CCN(c2cc(=O)n(-c3ccccc3C(C)C)c3nc(-c4ccccc4F)c(Cl)cc23)[C@@H](C)C1 [Example 126, 6-Chloro-7-(2-fluorophenyl)-4-((2S)-2-methyl-4-(2-propenoyl)-1-piperazinyl)-1-(2-(2-propanyl)phenyl)-1,8-naphthyridin-2(1H)-one]
- Coupled exchange IC50 (5 min) [1]: 2.05 | nda μM
- IC50 [2]: 1720 nM

SMILES: C=CC(=O)N1CCN(c2nc(=O)n(-c3c(C(=O)O)cccc3C(C)C)c3nc(-c4ccccc4F)c(Cl)cc23)[C@@H](C)C1 [Example 132, 2-(6-Chloro-7-(2-fluorophenyl)-4-((2S)-2-methyl-4-(2-propenoyl)-1-piperazinyl)-2-oxopyrido[2,3-d]pyrimidin-1(2H)-yl)-3-(2-propanyl)benzoic acid]
- Coupled exchange IC50 (5 min) [1]: 0.107 | nda μM
- IC50 [2]: 10000 nM

SMILES: C=CC(=O)N1CCN(c2nc(=O)n(-c3c(Cl)ncnc3C(C)C)c3nc(-c4ccccc4F)c(Cl)cc23)[C@@H](C)C1 [Example 133, 6-Chloro-1-(4-chloro-6-(2-propanyl)-5-pyrimidinyl)-7-(2-fluorophenyl)-4-((2S)-2-methyl-4-(2-propenoyl)-1-piperazinyl)pyrido[2,3-d]pyrimidin-2(1H)-one]
- Coupled exchange IC50 (5 min) [1]: 0.119 | nda μM
- IC50 [2]: 198 nM

SMILES: C=CC(=O)N1CCN(c2nc(=O)n(-c3c(C)cc(N)nc3C(C)C)c3nc(-c4ccccc4F)c(Cl)cc23)[C@@H](C)C1 [Example 136, 1-(6-Amino-4-methyl-2-(2-propanyl)-3-pyridinyl)-6-chloro-7-(2-fluorophenyl)-4-((2S)-2-methyl-4-(2-propenoyl)-1-piperazinyl)pyrido[2,3-d]pyrimidin-2(1H)-one]
- Coupled exchange IC50 (5 min) [1]: 0.135 | nda μM
- IC50 [2]: 121 nM

SMILES: C=CC(=O)N1CCN(c2nc(=O)n(-c3c(C)cc(O)nc3C(C)C)c3nc(-c4ccccc4F)c(Cl)cc23)[C@@H](C)C1 [Example 137, 6-chloro-7-(2-fluorophenyl)-1-(4-methyl-6-oxo-2-(2-propanyl)-1,6-dihydro-3-pyridinyl)-4-((2S)-2-methyl-4-(2-propenoyl)-1-piperazinyl)pyrido[2,3-d]pyrimidin-2(1H)-one]
- Coupled exchange IC50 (5 min) [1]: 0.5 | nda μM
- IC50 [2]: 1790 nM
